According to US20240199558A1, “2,4,6-TRISUBSTITUTED 1,3,5-TRIAZINES AS MODULATORS OF CX3CR1” (ASTRAZENECA AB, priority 2022, published 2024):

Each compound was assayed against CX3CR1 (Homo sapiens (Human), UniProt P49238) (assay: hCX3CR1 [3H]-AZD8797 competitive binding assay (filter)). Settings: CHO-hCX3CR1 membranes, 2 nM [3H]-AZD8797.
Sequence of CX3CR1 (P49238 whole entry): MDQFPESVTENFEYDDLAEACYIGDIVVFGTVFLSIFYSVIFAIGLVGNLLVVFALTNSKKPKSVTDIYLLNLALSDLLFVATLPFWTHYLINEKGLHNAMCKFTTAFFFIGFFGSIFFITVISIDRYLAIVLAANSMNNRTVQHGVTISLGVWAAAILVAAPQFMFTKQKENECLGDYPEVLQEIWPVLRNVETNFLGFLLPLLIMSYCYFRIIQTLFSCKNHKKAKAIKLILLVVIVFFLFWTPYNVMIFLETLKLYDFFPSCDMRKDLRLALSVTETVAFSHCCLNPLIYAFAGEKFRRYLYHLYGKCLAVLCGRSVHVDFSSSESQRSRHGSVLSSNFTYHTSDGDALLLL
Procedure: hCX3CR1 [^3H]-AZD8797 Competitive Binding Assay (Filter)
CHO-hCX3CR1 membranes (9 μg per well) together with 2 nM [^3H]-AZD8797 and different concentrations of competitor compound were incubated in 25 mM HEPES (pH 7.4), 10 mM MgCl2, 1 mM CaCl2) and 0.5% BSA in a Corning polystyrene flat-bottom 96-well plate. The plate was incubated for 2 h at room temperature before free radioligand was separated from bound by vacuum filtration on to a Multiscreen HTS+HiFlow FB (Millipore) filter plate, using a Biomek FX (Beckman Coulter). The filter plate was washed in ice-cold 25 mM HEPES (pH 7.4), 5 mM MgCl2, 1 mM CaCl2) and 500 mM NaCl and dried at 50° C. for 1 h. Scintillation cocktail, Optiphase Supermix (PerkinElmer) was added to each well and the radioactivity was measured using a MicroBeta Trilux reader (PerkinElmer). The DMSO concentration was held constant at 1%.
`CC(C)C[C@H](CO)Nc1nc(CC(C)c2cccc(N)c2)nc(NS(C)(=O)=O)n1` (stereo partly drawn) [Example 121, N-(4-(2-(3-Aminophenyl)propyl)-6-(((R)-1-hydroxy-4-methylpentan-2-yl)amino)-1,3,5-triazin-2-yl)methanesulfonamide] showed an IC50 of 21 nM. Work on `CC(C)C[C@H](CO)Nc1nc(CC(C)c2cnc3c(c2)OCC(=O)N3C)nc(NS(C)(=O)=O)n1` (stereo partly drawn) [Example 125, N-(4-(((R)-1-Hydroxy-4-methylpentan-2-yl)amino)-6-(2-(4-methyl-3-oxo-3,4-dihydro-2H-pyrido[3,2-b][1,4]oxazin-7-yl)propyl)-1,3,5-triazin-2-yl)methanesulfonamide] yielded an IC50 of 85 nM. In the case of `CC(C)C[C@H](CO)Nc1nc(CC(C)c2ccc(N)cc2)nc(NS(C)(=O)=O)n1` (stereo partly drawn) [Example 112, N-(4-(2-(4-Aminophenyl)propyl)-6-(((R)-1-hydroxy-4-methylpentan-2-yl)amino)-1,3,5-triazin-2-yl)methanesulfonamide], the IC50 is reported as 29 nM. In the case of `Cc1ccc(C(C)Cc2nc(N[C@@H](CO)CC(C)C)nc(NS(C)(=O)=O)n2)cc1N` (stereo partly drawn) [Example 114, N-(4-(2-(3-Amino-4-methylphenyl)propyl)-6-(((R)-1-hydroxy-4-methylpentan-2-yl)amino)-1,3,5-triazin-2-yl)methanesulfonamide], the IC50 is reported as 45 nM. For `CC(C)C[C@H](CO)Nc1nc(C[C@H](C)c2ccc(Cl)cc2)nc(NS(C)(=O)=O)n1` (single isomer, unassigned) [Example 171, N-(4-((R*)-2-(4-Chlorophenyl)propyl)-6-(((R)-1-hydroxy-4-methylpentan-2-yl)amino)-1,3,5-triazin-2-yl)methanesulfonamide], the IC50 was 771 nM. In the case of `CC(C)C[C@H](CO)Nc1nc(C[C@H](C)c2c(F)cccc2F)nc(NS(C)(=O)=O)n1` (single isomer, unassigned) [Example 77, N-(4-((S*)-2-(2,6-Difluorophenyl)propyl)-6-(((R)-1-hydroxy-4-methylpentan-2-yl)amino)-1,3,5-triazin-2-yl)methanesulfonamide], the IC50 is reported as 3250 nM. `COc1ccc(C(C)Cc2nc(N[C@@H](CO)CC(C)C)nc(NS(C)(=O)=O)n2)cc1OC` (stereo partly shown) [Example 96] showed an IC50 of 149 nM. With `CC(C)C[C@H](CO)Nc1nc(C[C@@H](C)c2cc(F)c(F)cc2F)nc(NS(C)(=O)=O)n1` (single isomer, unassigned) [Example 36, N-(4-(((R)-1-Hydroxy-4-methylpentan-2-yl)amino)-6-((R*)-2-(2,4,5-trifluorophenyl)propyl)-1,3,5-triazin-2-yl)methanesulfonamide] the IC50 was 504 nM. For `CC(C)C[C@H](CO)Nc1nc(C[C@H](C)c2cc(F)c(F)cc2F)nc(NS(C)(=O)=O)n1` (single isomer, unassigned) [Example 35, N-(4-(((R)-1-Hydroxy-4-methylpentan-2-yl)amino)-6-((S*)-2-(2,4,5-trifluorophenyl)propyl)-1,3,5-triazin-2-yl)methanesulfonamide], the IC50 was 2530 nM. `COc1ccc([C@@H](C)Cc2nc(N[C@@H](CO)CC(C)C)nc(NS(C)(=O)=O)n2)cc1F` (single isomer, unassigned) [Example 20, N-(4-((S*)-2-(3-Fluoro-4-methoxyphenyl)propyl)-6-(((R)-1-hydroxy-4-methylpentan-2-yl)amino)-1,3,5-triazin-2-yl)methanesulfonamide] gave an IC50 of 958 nM. `CC(C)C[C@H](CO)Nc1nc(C[C@H](C)c2ccc(Cl)c(F)c2F)nc(NS(C)(=O)=O)n1` (single isomer, unassigned) [Example 33, N-(4-((S*)-2-(4-Chloro-2,3-difluorophenyl)propyl)-6-(((R)-1-hydroxy-4-methylpentan-2-yl)amino)-1,3,5-triazin-2-yl)methanesulfonamide] gave an IC50 of 384 nM. Work on `CC(C)C[C@H](CO)Nc1nc(CC(C)c2ccc(C#N)cc2)nc(NS(C)(=O)=O)n1` (single isomer, unassigned) [Example 165, N-(4-((R*)-2-(4-Cyanophenyl)propyl)-6-(((R)-1-hydroxy-4-methylpentan-2-yl)amino)-1,3,5-triazin-2-yl)methanesulfonamide] yielded an IC50 of 283 nM. `CC(C)C[C@H](CO)Nc1nc(CC(C)c2ccc3c(=O)n(C)cnc3c2)nc(NS(C)(=O)=O)n1` (stereo partly drawn) [Example 126, N-(4-(((R)-1-Hydroxy-4-methylpentan-2-yl)amino)-6-(2-(3-methyl-4-oxo-3,4-dihydroquinazolin-7-yl)propyl)-1,3,5-triazin-2-yl)methanesulfonamide] was tested, and the IC50 was 257 nM. `CC(C)C[C@H](CO)Nc1nc(CC(C)c2cccc3c2NC(=O)C3)nc(NS(C)(=O)=O)n1` (stereo partly drawn) [Example 163, N-(4-(((R)-1-Hydroxy-4-methylpentan-2-yl)amino)-6-(2-(2-oxoindolin-7-yl)propyl)-1,3,5-triazin-2-yl)methanesulfonamide] was tested, and the IC50 was 5230 nM. In the case of `CC(C)C[C@H](CO)Nc1nc(C[C@H](C)c2ccnc(F)c2)nc(NS(C)(=O)=O)n1` (single isomer, unassigned) [Example 90, N-(4-((S*)-2-(2-Fluoropyridin-4-yl)propyl)-6-(((R)-1-hydroxy-4-methylpentan-2-yl)amino)-1,3,5-triazin-2-yl)methanesulfonamide], the IC50 is reported as 1700 nM. `COc1c(F)cccc1C(C)Cc1nc(N[C@@H](CO)CC(C)C)nc(NS(C)(=O)=O)n1` (stereo partly drawn) [Example 160, N-(4-(2-(3-Fluoro-2-methoxyphenyl)propyl)-6-(((R)-1-hydroxy-4-methylpentan-2-yl)amino)-1,3,5-triazin-2-yl)methanesulfonamide] was tested, and the IC50 was 350 nM. Work on `CC(C)C[C@H](CO)Nc1nc(CC(C)c2c[nH]c3ncccc23)nc(NS(C)(=O)=O)n1` (stereo partly drawn) [Example 93, N-(4-(2-(1H-Pyrrolo[2,3-b]pyridin-3-yl)propyl)-6-(((R)-1-hydroxy-4-methylpentan-2-yl)amino)-1,3,5-triazin-2-yl)methanesulfonamide] yielded an IC50 of 209 nM. Work on `CCOc1ccc(C(C)Cc2nc(N[C@@H](CO)CC(C)C)nc(NS(C)(=O)=O)n2)cc1F` (stereo partly shown) [Example 119] yielded an IC50 of 335 nM. Work on `CC(C)C[C@H](CO)Nc1nc(CC(C)c2ccc(CCO)nc2)nc(NS(C)(=O)=O)n1` (stereo partly drawn) [Example 132, N-(4-(((R)-1-Hydroxy-4-methylpentan-2-yl)amino)-6-(2-(6-(2-hydroxyethyl)pyridin-3-yl)propyl)-1,3,5-triazin-2-yl)methanesulfonamide] yielded an IC50 of 264 nM. Work on `CC(C)C[C@H](CO)Nc1nc(CC(C)c2cccc(Cl)c2)nc(NS(C)(=O)=O)n1` (stereo partly drawn) [Example 72, N-(4-(2-(3-Chlorophenyl)propyl)-6-(((R)-1-hydroxy-4-methylpentan-2-yl)amino)-1,3,5-triazin-2-yl)methanesulfonamide] yielded an IC50 of 340 nM. For `CC(C)C[C@H](CO)Nc1nc(C[C@H](C)c2ccc(F)c(F)c2F)nc(NS(C)(=O)=O)n1` (relative stereo) [Example 87, N-(4-(((R)-1-Hydroxy-4-methylpentan-2-yl)amino)-6-((S*)-2-(2,3,4-trifluorophenyl)propyl)-1,3,5-triazin-2-yl)methanesulfonamide], the IC50 was 186 nM. `CC(C)C[C@H](CO)Nc1nc(CC(C)c2ccc(OC(F)F)nc2)nc(NS(C)(=O)=O)n1` (stereo partly drawn) [Example 127, N-(4-(2-(6-(Difluoromethoxy)pyridin-3-yl)propyl)-6-(((R)-1-hydroxy-4-methylpentan-2-yl)amino)-1,3,5-triazin-2-yl)methanesulfonamide] showed an IC50 of 354 nM. Compound `CC(C)C[C@H](CO)Nc1nc(CC(C)c2ccc3c(c2)CN(C)C(=O)C3)nc(NS(C)(=O)=O)n1` (stereo partly drawn) [Example 130, N-(4-(((R)-1-Hydroxy-4-methylpentan-2-yl)amino)-6-(2-(2-methyl-3-oxo-1,2,3,4-tetrahydroisoquinolin-7-yl)propyl)-1,3,5-triazin-2-yl)methanesulfonamide] has an IC50 of 79 nM. For `CC(C)C[C@H](CO)Nc1nc(C[C@@H](C)c2cc(F)ccc2F)nc(NS(C)(=O)=O)n1` (single isomer, unassigned) [Example 24, N-(4-((R*)-2-(2,5-Difluorophenyl)propyl)-6-(((R)-1-hydroxy-4-methylpentan-2-yl)amino)-1,3,5-triazin-2-yl)methanesulfonamide], the IC50 was 78 nM. `CC(C)C[C@H](CO)Nc1nc(C[C@@H](C)c2c(F)cc(Cl)cc2F)nc(NS(C)(=O)=O)n1` (single isomer, unassigned) [Example 44, N-(4-((R*)-2-(4-Chloro-2,6-difluorophenyl)propyl)-6-(((R)-1-hydroxy-4-methylpentan-2-yl)amino)-1,3,5-triazin-2-yl)methanesulfonamide] gave an IC50 of 173 nM. `CC(C)C[C@H](CO)Nc1nc(C[C@H](C)c2ccc(F)c(Cl)c2)nc(NS(C)(=O)=O)n1` (single isomer, unassigned) [Example 65, N-(4-((S*)-2-(3-Chloro-4-fluorophenyl)propyl)-6-(((R)-1-hydroxy-4-methylpentan-2-yl)amino)-1,3,5-triazin-2-yl)methanesulfonamide] showed an IC50 of 4200 nM. `CC(C)C[C@H](CO)Nc1nc(CC(C)c2cccc(F)c2O)nc(NS(C)(=O)=O)n1` (stereo partly drawn) [Example 135, N-(4-(2-(3-Fluoro-2-hydroxyphenyl)propyl)-6-(((R)-1-hydroxy-4-methylpentan-2-yl)amino)-1,3,5-triazin-2-yl)methanesulfonamide] was tested, and the IC50 was 104 nM. `Cc1ccc(F)c(C(C)Cc2nc(N[C@@H](CO)CC(C)C)nc(NS(C)(=O)=O)n2)n1` (stereo partly drawn) [Example 155, N-(4-(2-(3-Fluoro-6-methylpyridin-2-yl)propyl)-6-(((R)-1-hydroxy-4-methylpentan-2-yl)amino)-1,3,5-triazin-2-yl)methanesulfonamide] was tested, and the IC50 was 1550 nM.
